From ChEMBL document CHEMBL1131608, “Structure-activity relationships and molecular modeling of 3, 5-diacyl-2,4-dialkylpyridine derivatives as selective A3 adenosine receptor antagonists” (J Med Chem, 1998) come the findings set out here.

pKi: −log10 of the molar value.

Assay [1] concerns the target T1, Adenosine receptor A1 (Rattus norvegicus, UniProt P25099).
T1 sequence (P25099 whole entry): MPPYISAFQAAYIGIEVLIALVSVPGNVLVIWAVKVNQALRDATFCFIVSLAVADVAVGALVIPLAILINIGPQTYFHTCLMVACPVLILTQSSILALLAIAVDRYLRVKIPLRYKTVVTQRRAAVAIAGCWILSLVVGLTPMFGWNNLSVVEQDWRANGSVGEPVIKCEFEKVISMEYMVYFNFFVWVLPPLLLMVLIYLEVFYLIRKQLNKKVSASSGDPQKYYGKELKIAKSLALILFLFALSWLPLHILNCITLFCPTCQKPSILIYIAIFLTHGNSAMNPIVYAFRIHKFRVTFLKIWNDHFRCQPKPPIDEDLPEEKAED
As to the kind of experiment: Binding affinity for adenosine A1 receptor as displacement of [3H]R-PIA from rat brain membranes at 10e-4 M. It counts as cell membranes, Membrane. On the technique in general: Displacement assays read how much labelled ligand stays bound in the presence of the test substance.

The target of assay [2] is T2, Adenosine receptor A2a (Rattus norvegicus, UniProt P30543).
T2 sequence (P30543 whole entry): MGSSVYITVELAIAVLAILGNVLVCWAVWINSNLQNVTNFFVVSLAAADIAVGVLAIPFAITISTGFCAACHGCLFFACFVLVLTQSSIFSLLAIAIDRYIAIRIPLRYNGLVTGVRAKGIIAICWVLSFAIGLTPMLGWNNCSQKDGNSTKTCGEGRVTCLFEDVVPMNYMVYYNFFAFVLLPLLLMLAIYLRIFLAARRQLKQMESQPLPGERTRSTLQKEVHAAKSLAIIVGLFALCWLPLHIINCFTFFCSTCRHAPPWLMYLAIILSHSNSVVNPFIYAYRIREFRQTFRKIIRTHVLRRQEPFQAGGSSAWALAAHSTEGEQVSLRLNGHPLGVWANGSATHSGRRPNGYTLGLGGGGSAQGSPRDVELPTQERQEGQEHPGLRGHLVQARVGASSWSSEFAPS
For assay [3], the target named is T2, Adenosine receptor A2a. As to the kind of experiment: Binding affinity for adenosine A2A receptor as displacement of [3H]-CGS- 21680 from rat striatal membranes. It counts as cell membranes, Membrane.
The target in assay [4] is T1, Adenosine receptor A1. As to the kind of experiment: Binding affinity for adenosine A1 receptor as displacement of [3H]R-PIA from rat brain membranes. The class given is cell membranes, Membrane.

As for `CCO/C(O)=C1\C(C)=NC(c2ccccc2)=C(C(=O)OCc2ccc([N+](=O)[O-])cc2)C1C#Cc1ccccc1` (centres undefined), the pKi on Adenosine receptor A1 [1] and at Adenosine receptor A2a [2] was below 4.00 throughout.

Consider `CCCO/C(O)=C1\C(C)=NC(c2ccccc2)=C(C(=O)OCC)C1C` (centres undefined), for which the pKi (usually the negative decadic logarithm of the Ki, by convention in mol/L) was 4.54 on Adenosine receptor A2a [3] and 4.76 on Adenosine receptor A1 [4].
